Literature values in publication PMC11451938 (RSC Medicinal Chemistry, 2024).

Target: hNTS1
Details: read-out: NTS1 Ki; CHO-K1 cells expressing hNTS1

Ki: 4 nM
Substance: JMV 438: NT[8-13] in which the Arg8-Arg9 fragment was replaced with Lys8-Lys9
